{"source": "patent US20030198684A1", "about": "(priority 2002, published 2003)", "origin": "cited, not measured here", "key": {"[1]": {"details": "300 mg/wk for six weeks; TE: shoulders; ND: shoulders and chest"}, "[2]": {"details": "for waking erection: Asian hypogonadal men; for sexual interest and activity, spontaneous erection: Caucasian hypogonadal men"}, "[3]": {"details": "HIV-infected men, pharmacological doses"}, "[4]": {"details": "supplementation"}, "[5]": {"details": "in vivo"}, "[6]": {"target": "T1, aromatase (Homo sapiens, UniProt P11511)", "T1 sequence (P11511 1-503)": "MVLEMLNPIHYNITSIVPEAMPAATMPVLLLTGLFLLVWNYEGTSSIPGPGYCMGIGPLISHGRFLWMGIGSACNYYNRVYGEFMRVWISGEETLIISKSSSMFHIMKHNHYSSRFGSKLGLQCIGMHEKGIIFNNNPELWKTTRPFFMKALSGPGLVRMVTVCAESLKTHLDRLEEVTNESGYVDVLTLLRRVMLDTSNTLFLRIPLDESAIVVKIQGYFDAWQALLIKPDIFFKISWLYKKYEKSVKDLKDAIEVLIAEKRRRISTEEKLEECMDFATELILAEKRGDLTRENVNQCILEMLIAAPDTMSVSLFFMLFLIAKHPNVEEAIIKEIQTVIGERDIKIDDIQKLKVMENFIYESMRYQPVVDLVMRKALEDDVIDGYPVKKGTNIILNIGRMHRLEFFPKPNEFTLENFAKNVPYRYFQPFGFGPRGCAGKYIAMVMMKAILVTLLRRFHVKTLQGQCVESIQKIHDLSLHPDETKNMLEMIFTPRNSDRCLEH", "details": "compared with chrysin, AG and ANG"}, "[7]": {"details": "supplementation", "remark": "listed apart in the source"}, "[8]": {"system": "prostate and seminal vesicle weights"}, "[9]": {"system": "levator ani muscles"}, "[10]": {"system": "young female rats", "details": "constant infusion"}, "[11]": {"details": "body builders"}, "[12]": {"details": "in vivo", "remark": "listed apart in the source"}, "[13]": {"details": "patients on dialysis, compared with placebo"}}, "note": "Where two headings read alike, the source gives them in different places."}
{"compound": "CCCCCCC(=O)O[C@H]1CC[C@H]2[C@@H]3CCC4=CC(=O)CC[C@]4(C)[C@H]3CC[C@]12C", "note": "[TE, testosterone enanthate]", "values": [{"measurement": "body circumferences (of fifteen)", "setting": "[1]", "value": "significant increases"}, {"measurement": "waking erection", "setting": "[2]", "value": "increased waking erection"}, {"measurement": "sexual interest and activity, spontaneous erection", "setting": "[2]", "value": "significant increases"}]}
{"compound": "CCCCCCCCCC(=O)O[C@H]1CC[C@H]2[C@@H]3CCC4=CC(=O)CC[C@@H]4[C@H]3CC[C@]12C", "note": "[nandrolone decanoate, 19-nor-testosterone decanoate]", "values": [{"measurement": "body circumferences (of fifteen)", "setting": "[1]", "value": "significant increases"}, {"measurement": "total weight, lean body mass, body cell mass, muscle size, and strength", "setting": "[3]", "value": "significant gains"}]}
{"compound": "C[C@]12CC[C@H]3[C@@H](CCC4=C[C@@H](O)CC[C@@]43C)[C@@H]1CC[C@@H]2O", "note": "[4-androstenediol]", "values": [{"measurement": "urine testosterone concentration relative to 4androstenedione", "setting": "[4]", "value": 10, "unit": "fold"}, {"measurement": "human serum testosterone levels", "setting": "[5]", "value": "produce elevations in human serum testosterone levels"}]}
{"compound": "COc1ccc(-c2coc3cc(O)cc(O)c3c2=O)cc1", "note": "[Biochanin A, 5,7-dihydroxy-4′-methoxyisoflavone]", "values": [{"measurement": "aromatase inhibition (in words)", "setting": "[6]", "value": "inhibited aromatase, but to a lesser degree"}]}
{"compound": "C[C@]12CCC(=O)C=C1CC[C@@H]1[C@@H]2CC[C@]2(C)C(=O)CC[C@@H]12", "note": "[4-androstenedione]", "values": [{"measurement": "serum testosterone", "setting": "[7]", "value": "produced elevations in serum testosterone"}]}
{"compound": "C[C@@H]1CC2=CC(=O)CC[C@@H]2[C@H]2CC[C@]3(C)[C@@H](O)CC[C@H]3[C@@H]21", "note": "[MENT, 7α-methyl-19-nor-testosterone]", "values": [{"measurement": "waking erection", "setting": "[2]", "value": "increased waking erection"}, {"measurement": "sexual interest and activity, spontaneous erection", "setting": "[2]", "value": "significant increases"}, {"measurement": "androgenic potency relative to testosterone", "setting": "[8]", "value": "four- to five-times more androgenic than testosterone"}, {"measurement": "anabolic potency relative to testosterone", "setting": "[9]", "value": "ten-times as potent as testosterone"}]}
{"compound": "C[C@]12CC[C@H](O)CC1=CC[C@@H]1[C@@H]2CC[C@]2(C)C(=O)CC[C@@H]12", "note": "[DHEA, dehydro-epiandrosterone]", "values": [{"measurement": "plasma testosterone", "setting": "50 mg dose of DHEA", "value": "restored plasma testosterone to levels similar to those observed in young women"}, {"measurement": "delta 5-androstenediol", "setting": "50 mg or 200 mg DHEA", "value": "small increase"}, {"measurement": "plasma delta 4-androstenedione increase", "setting": "50 mg or 200 mg DHEA", "value": "significant and dose dependent"}, {"measurement": "plasma estrogens, particularly estradiol", "setting": "50 mg or 200 mg DHEA", "value": "significant and dose dependent increase"}, {"measurement": "plasma testosterone", "setting": "200 mg dose of DHEA", "value": "important increase of plasma testosterone, slightly below the levels observed in normal men"}, {"measurement": "increase of plasma dihydrotestosterone levels", "setting": "both doses of DHEA", "value": "small at both doses"}]}
{"compound": "C[C@]12CC[C@H]3[C@@H](CCC4=CC(=O)CC[C@@H]43)[C@@H]1CC[C@@H]2O", "note": "[nandrolone, 19-nor-testosterone]", "values": [{"measurement": "energy expenditure", "setting": "[10]", "value": "increased energy expenditure"}, {"measurement": "decrease in HDL-choresterol and diastolic blood pressure", "setting": "[11]", "value": "25-27%"}, {"measurement": "azoospermia", "setting": "[12]", "value": "azoospermia (lack of sperm) associated with nandrolone use"}, {"measurement": "lean body mass", "setting": "[13]", "value": "increased significantly"}]}
{"compound": "C[C@]12CC[C@H]3[C@@H](CC=C4C[C@@H](O)CC[C@@]43C)[C@@H]1CC[C@@H]2O", "note": "[5-androstenediol]", "values": [{"measurement": "lipid deposition or heat production", "setting": "[10]", "value": "did not have a significant effect"}, {"measurement": "proportion of protein in the body composition", "setting": "[10]", "value": "increased"}]}
{"compound": "C[C@]12CC[C@H]3[C@@H](CCC4=CC(=O)CC[C@@]43C)[C@@H]1CC[C@@H]2O", "note": "[testosterone]", "values": [{"measurement": "lipid deposition or heat production", "setting": "[10]", "value": "did not have a significant effect"}, {"measurement": "proportion of protein in the body composition", "setting": "[10]", "value": "increased"}]}
